The nature of series [1]: in vitro. Particulars: human, liver microsomes.
A short description of series [2]: in vitro. Particulars: human, Caco-2.
The nature of series [3]: in vitro. The following applies: mouse, liver microsomes.

Turning to `C[C@H]1CN(C)CCN1c1cc(NC(=O)Cn2cc(-c3cc(F)c(O)c(C(N)=O)c3F)c3c(=O)n(C)cnc32)c(Cl)c(F)n1`, the fraction remaining at 1 h in the series “in vitro [1]” amounted to 16%; in the series “in vitro [3]” it was 43%. The compound also yielded an apparent permeability from apical to basolateral (Papp A→B) in the series “in vitro [2]” of 2.8 ×10⁻⁶ cm/s.

On to `C[C@H]1CN(C)CCN1c1cc(NC(=O)Cn2cc(-c3cc(F)c(O)c(C(N)=O)c3)c3c(=O)n(C)cnc32)c(Cl)cn1`, for which the share remaining at 1 h in the series “in vitro [1]” was 62%; in the series “in vitro [3]”, 49%. This compound also gave a Papp A→B in the series “in vitro [2]” of 0.5 ×10⁻⁶ cm/s.

Take `C[C@H]1COCCN1c1cc(NC(=O)Cn2cc(-c3cc(Cl)c(O)c(C(N)=O)c3)c3c(=O)n(C)cnc32)c(Cl)cn1`: the results for the share remaining at 1 h in the series “in vitro [1]” and in the series “in vitro [3]” were 27% and 63%, respectively. The compound also had a Papp A→B in “in vitro [2]” of 3.6 ×10⁻⁶ cm/s.

As for `C[C@@H]1COCCN1c1cc(NC(=O)Cn2cc(-c3cc(Cl)c(O)c(C(N)=O)c3)c3c(=O)n(C)cnc32)c(Cl)cn1`, the share remaining at 1 h amounted to 55% in “in vitro [1]” and 36% in “in vitro [3]”. The compound also showed a Papp A→B in “in vitro [2]” of 3 ×10⁻⁶ cm/s.

Regarding `Cc1nc2c(c(-c3cc(C(N)=O)c(O)c(F)c3F)cn2CC(=O)Nc2cc(N3CCN(C)C[C@@H]3C)ncc2Cl)c(=O)n1C`, the amount remaining at 1 h turned out to be 73% in “in vitro [1]” and 65% in the series “in vitro [3]”. For the same compound, the Papp A→B in the series “in vitro [2]” was determined as 4.4 ×10⁻⁶ cm/s.

Values taken from ChEMBL document CHEMBL5223188, “Discovery of OICR12694: A Novel, Potent, Selective, and Orally Bioavailable BCL6 BTB Inhibitor” (ACS Med Chem Lett, 2023).
